Data taken from ChEMBL document CHEMBL1201862, “PubChem BioAssay data set” (2004).
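Each compound was tested at five concentrations against cells in 96-well plates for 48 hours. The concentration for 50% growth inhibition is given as GI50.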 Active and inactive are the calls of the source. Cut-off read from the data, not from the text of the source: active = GI50 up to about 1.1 µM and inactive = higher.

Tests used:
Experiment in all cases: NCI anticancer screen, dose series, 48 h
A549 = test system: A549
CAKI-1 = test system: CAKI-1
HCC 2998 = test system: HCC 2998
HL-60 = test system: HL-60
HOP-92 = test system: HOP-92
HT-29 = test system: HT-29
M14 = test system: M14
MDA-MB-231 = test system: MDA-MB-231
MDA-MB-435 = test system: MDA-MB-435
NCI-H460 = test system: NCI-H460
NCI-H522 = test system: NCI-H522
SF-268 = test system: SF-268
SF-539 = test system: SF-539
SK-MEL-2 = test system: SK-MEL-2
SK-MEL-5 = test system: SK-MEL-5
SNB-75 = test system: SNB-75
U-251 = test system: U-251
UO-31 = test system: UO-31
HOP-62 = test system: HOP-62
MDA-N = test system: MDA-N

SMILES	GI50 (A549)	GI50 (CAKI-1)	GI50 (HCC 2998)	GI50 (HL-60)	GI50 (HOP-92)	GI50 (HT-29)	GI50 (M14)	GI50 (MDA-MB-231)	GI50 (MDA-MB-435)	GI50 (NCI-H460)	GI50 (NCI-H522)	GI50 (SF-268)	GI50 (SF-539)	GI50 (SK-MEL-2)	GI50 (SK-MEL-5)	GI50 (SNB-75)	GI50 (U-251)	GI50 (UO-31)	GI50 (HOP-62)	GI50 (MDA-N)
O=C1C[C@@H](c2ccc(O)cc2)[C@@]2(O1)C(=O)O[C@H]([C@@H](O)CO)[C@@H]2O	> 100 µM (inactive)	> 100 µM (inactive)	> 100 µM (inactive)	> 100 µM (inactive)	> 100 µM (inactive)	> 100 µM (inactive)	> 100 µM (inactive)	> 100 µM (inactive)	> 100 µM (inactive)	> 100 µM (inactive)	> 100 µM (inactive)	> 100 µM (inactive)	> 100 µM (inactive)	> 100 µM (inactive)	> 100 µM (inactive)	> 100 µM (inactive)	> 100 µM (inactive)	> 100 µM (inactive)	–	–
COc1ccc(CN2CCC/C=C/CC(Cl)(Cl)C2=O)cc1	35 µM (inactive)	38.4 µM (inactive)	35.3 µM (inactive)	28.2 µM (inactive)	14.5 µM (inactive)	35.8 µM (inactive)	20.1 µM (inactive)	–	–	29.4 µM (inactive)	19.8 µM (inactive)	26.6 µM (inactive)	33.6 µM (inactive)	19.8 µM (inactive)	18 µM (inactive)	15.1 µM (inactive)	34.1 µM (inactive)	21.2 µM (inactive)	50.9 µM (inactive)	–
Cc1cc(Cl)ccc1NC(=O)C(=O)Cc1nc2ccccc2o1	> 100 µM (inactive)	> 100 µM (inactive)	> 100 µM (inactive)	> 100 µM (inactive)	> 100 µM (inactive)	> 100 µM (inactive)	> 100 µM (inactive)	–	–	> 100 µM (inactive)	> 100 µM (inactive)	> 100 µM (inactive)	> 100 µM (inactive)	> 100 µM (inactive)	> 100 µM (inactive)	> 100 µM (inactive)	> 100 µM (inactive)	> 100 µM (inactive)	> 100 µM (inactive)	–
COc1ccc(Nc2nc(N)c(C(=O)c3ccccc3)s2)cc1	0.152 µM (active)	0.0342 µM (active)	0.227 µM (active)	< 0.01 µM (active)	33.6 µM (inactive)	0.0162 µM (active)	–	–	< 0.01 µM (active)	0.0289 µM (active)	0.0148 µM (active)	0.839 µM (active)	0.0129 µM (active)	0.054 µM (active)	0.0689 µM (active)	0.0258 µM (active)	0.0302 µM (active)	0.0912 µM (active)	16.7 µM (inactive)	< 0.01 µM (active)
COc1ccc(C2C3=CONC3CC3CCCCC32)cc1 (centres undefined)	33.8 µM (inactive)	> 100 µM (inactive)	18.5 µM (inactive)	29.6 µM (inactive)	–	> 100 µM (inactive)	54.5 µM (inactive)	–	47.9 µM (inactive)	33.8 µM (inactive)	29.6 µM (inactive)	79.4 µM (inactive)	–	33.8 µM (inactive)	50.8 µM (inactive)	> 100 µM (inactive)	46 µM (inactive)	38 µM (inactive)	> 100 µM (inactive)	> 10 µM (inactive)
COc1ccc2c(c1)OC[C@@H]1c3cc4c(cc3O[C@H]21)OCO4	> 100 µM (inactive)	58.5 µM (inactive)	> 100 µM (inactive)	> 100 µM (inactive)	70 µM (inactive)	> 100 µM (inactive)	> 100 µM (inactive)	–	–	> 100 µM (inactive)	> 100 µM (inactive)	75 µM (inactive)	> 100 µM (inactive)	> 100 µM (inactive)	> 100 µM (inactive)	11.6 µM (inactive)	> 100 µM (inactive)	> 100 µM (inactive)	> 100 µM (inactive)	–
CCOC1(OCC)N=C(N)C2(C#N)C3(C(=O)N(C(C)C)N=C3C)C12C#N (centres undefined)	> 100 µM (inactive)	> 100 µM (inactive)	> 100 µM (inactive)	0.893 µM (active)	> 100 µM (inactive)	> 100 µM (inactive)	> 100 µM (inactive)	> 100 µM (inactive)	> 100 µM (inactive)	> 100 µM (inactive)	79.1 µM (inactive)	> 100 µM (inactive)	> 100 µM (inactive)	> 100 µM (inactive)	–	> 100 µM (inactive)	> 100 µM (inactive)	> 100 µM (inactive)	> 100 µM (inactive)	–
Nc1nc(S)nc(C(=O)Nc2nccs2)c1-c1ccccc1	> 100 µM (inactive)	> 100 µM (inactive)	> 100 µM (inactive)	> 100 µM (inactive)	> 100 µM (inactive)	> 100 µM (inactive)	> 100 µM (inactive)	–	–	> 100 µM (inactive)	> 100 µM (inactive)	> 100 µM (inactive)	> 100 µM (inactive)	> 100 µM (inactive)	> 100 µM (inactive)	> 100 µM (inactive)	> 100 µM (inactive)	> 100 µM (inactive)	> 100 µM (inactive)	–
c1ccc(P(=C2c3ccccc3-c3ccccc32)(c2ccccc2)c2ccccc2)cc1	7 µM (inactive)	6.41 µM (inactive)	3.63 µM (inactive)	1.8 µM (inactive)	2.75 µM (inactive)	2.99 µM (inactive)	8.34 µM (inactive)	–	–	3.37 µM (inactive)	1.6 µM (inactive)	7.19 µM (inactive)	11.5 µM (inactive)	5.35 µM (inactive)	2.17 µM (inactive)	28.1 µM (inactive)	3.05 µM (inactive)	8.87 µM (inactive)	1.69 µM (inactive)	–
O=C1/C(=N\O)C2CCC1C2 (centres undefined)	> 100 µM (inactive)	> 100 µM (inactive)	> 100 µM (inactive)	> 100 µM (inactive)	> 100 µM (inactive)	> 100 µM (inactive)	> 100 µM (inactive)	–	–	> 100 µM (inactive)	> 100 µM (inactive)	> 100 µM (inactive)	> 100 µM (inactive)	> 100 µM (inactive)	> 100 µM (inactive)	> 100 µM (inactive)	> 100 µM (inactive)	> 100 µM (inactive)	> 100 µM (inactive)	–
CCOC(=O)c1sc2c(C(=O)OCC)n3ccccc3c2c1N	> 100 µM (inactive)	> 100 µM (inactive)	> 100 µM (inactive)	> 100 µM (inactive)	13.4 µM (inactive)	> 100 µM (inactive)	> 100 µM (inactive)	–	–	> 100 µM (inactive)	20.3 µM (inactive)	21.7 µM (inactive)	64.1 µM (inactive)	> 100 µM (inactive)	> 100 µM (inactive)	31.7 µM (inactive)	31.8 µM (inactive)	26.1 µM (inactive)	19.2 µM (inactive)	–
Cc1c2c(n(C)c1C)C(=O)C1C(C2=O)C2(C)c3ccccc3C1(C)c1ccccc12 (centres undefined)	–	–	–	> 100 µM (inactive)	–	> 100 µM (inactive)	> 100 µM (inactive)	–	> 100 µM (inactive)	> 100 µM (inactive)	–	> 100 µM (inactive)	> 100 µM (inactive)	> 100 µM (inactive)	> 100 µM (inactive)	> 100 µM (inactive)	> 10 µM (inactive)	> 100 µM (inactive)	> 100 µM (inactive)	–
COc1cc2c(c(OC)c1OC)CCNC2C1=C(O)COC1=O (centres undefined)	> 100 µM (inactive)	> 100 µM (inactive)	> 100 µM (inactive)	> 100 µM (inactive)	> 100 µM (inactive)	> 100 µM (inactive)	> 100 µM (inactive)	–	–	92.9 µM (inactive)	> 100 µM (inactive)	> 100 µM (inactive)	> 100 µM (inactive)	61.9 µM (inactive)	95.1 µM (inactive)	> 100 µM (inactive)	> 100 µM (inactive)	> 100 µM (inactive)	> 100 µM (inactive)	–
C/C(=C\CC[C@]1(C)OC(C)(C)OC1CC/C(C)=C/CO[Si](c1ccccc1)(c1ccccc1)C(C)(C)C)CC/C=C/CO[Si](C)(C)C(C)(C)C (some centres undefined)	> 100 µM (inactive)	> 100 µM (inactive)	> 100 µM (inactive)	> 100 µM (inactive)	> 100 µM (inactive)	> 100 µM (inactive)	> 100 µM (inactive)	–	–	> 100 µM (inactive)	> 100 µM (inactive)	> 100 µM (inactive)	> 100 µM (inactive)	> 100 µM (inactive)	> 100 µM (inactive)	> 100 µM (inactive)	> 100 µM (inactive)	> 100 µM (inactive)	> 100 µM (inactive)	–
CCOC(=O)[C@]12C(=C(c3ccccc3)O[C@H]3C=CCC[C@H]31)C(=O)C(=O)N2c1ccccc1	> 100 µM (inactive)	> 100 µM (inactive)	> 100 µM (inactive)	–	–	60 µM (inactive)	> 100 µM (inactive)	> 100 µM (inactive)	–	> 100 µM (inactive)	24 µM (inactive)	> 100 µM (inactive)	> 100 µM (inactive)	> 100 µM (inactive)	93.8 µM (inactive)	–	13.4 µM (inactive)	> 100 µM (inactive)	> 100 µM (inactive)	–
CS(=O)(=O)OCCN1CCN(C(=O)c2cccc3c(Nc4ccc(S(N)(=O)=O)cc4)c4ccccc4nc23)CC1	> 100 µM (inactive)	> 100 µM (inactive)	> 100 µM (inactive)	> 63.1 µM (inactive)	> 100 µM (inactive)	> 100 µM (inactive)	> 100 µM (inactive)	–	–	> 100 µM (inactive)	> 100 µM (inactive)	> 100 µM (inactive)	> 100 µM (inactive)	> 100 µM (inactive)	> 100 µM (inactive)	> 100 µM (inactive)	> 100 µM (inactive)	> 100 µM (inactive)	> 100 µM (inactive)	–
